# According to PubChem BioAssay AID1845206 (Molecular Pharmacology Branch, DTP, NCI, 2023):
# System: NCI-H1618 multicellular tumor spheroid viability
# Test: Anticancer human tumor NCI-H1618 cell line growth inhibition;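 also: spheroids exposed to agents for 7 days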
# Details: for IC50: curve of first compound; for viability, T/C: stronger effect = lower value
# How it was run: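 Complex tumor spheroids combined malignant cells with endothelial cells and mesenchymal stem cells. DNA-damaging drugs and DNA repair inhibitors were tested alone and in combination, at half-log dilutions down from clinical Cmax (top 10 microM if Cmax unknown), 0.25% DMSO final.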
# [1] = second compound 0.003 µM, first compound 0.0316 µM
# [2] = second compound 0.003 µM, first compound 0.1 µM
# [3] = second compound 0.003 µM, first compound 0.316 µM
# [4] = second compound 0.003 µM, first compound 1 µM
# [5] = second compound 0.003 µM, first compound 3.16 µM
# [6] = second compound 0.003 µM, first compound 10 µM
# [7] = second compound 0.00949 µM, first compound 0.0316 µM
# [8] = second compound 0.00949 µM, first compound 0.1 µM
# [9] = second compound 0.00949 µM, first compound 0.316 µM
# [10] = second compound 0.00949 µM, first compound 1 µM
# [11] = second compound 0.00949 µM, first compound 3.16 µM
# [12] = second compound 0.00949 µM, first compound 10 µM
# [13] = second compound 0.03 µM, first compound 0.0316 µM
# [14] = second compound 0.03 µM, first compound 0.1 µM
# [15] = second compound 0.03 µM, first compound 0.316 µM
# [16] = second compound 0.03 µM, first compound 1 µM
# [17] = second compound 0.03 µM, first compound 3.16 µM
# [18] = second compound 0.03 µM, first compound 10 µM
# [19] = second compound 0.0949 µM, first compound 0.0316 µM
# [20] = second compound 0.0949 µM, first compound 0.1 µM
# [21] = second compound 0.0949 µM, first compound 0.316 µM
# [22] = second compound 0.0949 µM, first compound 1 µM
# [23] = second compound 0.0949 µM, first compound 3.16 µM
# [24] = second compound 0.0949 µM, first compound 10 µM
# [25] = second compound 0.3 µM, first compound 0.0316 µM
# [26] = second compound 0.3 µM, first compound 0.1 µM
# [27] = second compound 0.3 µM, first compound 0.316 µM
# [28] = second compound 0.3 µM, first compound 1 µM
# [29] = second compound 0.3 µM, first compound 3.16 µM
# [30] = second compound 0.3 µM, first compound 10 µM
Compound,IC50 (second compound 0.003 µM),IC50 (second compound 0.00949 µM),IC50 (second compound 0.03 µM),IC50 (second compound 0.0949 µM),IC50 (second compound 0.3 µM),"viability, T/C [1]","viability, T/C [2]","viability, T/C [3]","viability, T/C [4]","viability, T/C [5]","viability, T/C [6]","viability, T/C [7]","viability, T/C [8]","viability, T/C [9]","viability, T/C [10]","viability, T/C [11]","viability, T/C [12]","viability, T/C [13]","viability, T/C [14]","viability, T/C [15]",further results
CC(C)n1c(=O)n(C)c2cnc3cc(F)c(-c4ccc(OCCCN5CCCCC5)nc4)cc3c21 + CC[C@@]1(O)C(=O)OCc2c1cc1n(c2=O)Cc2cc3c(CN(C)C)c(O)ccc3nc2-1,> 10000 nM,< 31.6 nM,< 31.6 nM,< 31.6 nM,< 31.6 nM,56.8%,51.4%,51.9%,66.7%,72.7%,38.1%,7.93%,4.31%,8.14%,10.5%,12.8%,14.4%,4.99%,4.95%,4.02%,"viability, T/C [16]: 2.3%; viability, T/C [17]: 2.79%; viability, T/C [18]: 1.82%; viability, T/C [19]: 4.98%; viability, T/C [20]: 3.54%; viability, T/C [21]: 8.33%; viability, T/C [22]: 4.32%; viability, T/C [23]: 7.17%; viability, T/C [24]: 4.95%; viability, T/C [25]: 4.62%; viability, T/C [26]: 4.88%; viability, T/C [27]: 4.27%; viability, T/C [28]: 4.09%; viability, T/C [29]: 5.96%; viability, T/C [30]: 6.01%"
CC1COCCN1c1cc(-c2ccnn2C)c2ccnc(-c3ccn[nH]3)c2n1 (stereo not given) + CC[C@@]1(O)C(=O)OCc2c1cc1n(c2=O)Cc2cc3c(CN(C)C)c(O)ccc3nc2-1,< 31.6 nM,< 31.6 nM,< 31.6 nM,< 31.6 nM,< 31.6 nM,29.3%,15.1%,7%,2.06%,2.27%,0.99%,7.33%,4.63%,4.22%,2.35%,2.23%,1.12%,2.57%,3.94%,3.52%,"viability, T/C [16]: 1.99%; viability, T/C [17]: 1.19%; viability, T/C [18]: 0.71%; viability, T/C [19]: 3.01%; viability, T/C [20]: 2.44%; viability, T/C [21]: 5%; viability, T/C [22]: 2.35%; viability, T/C [23]: 2.1%; viability, T/C [24]: 0.81%; viability, T/C [25]: 1.79%; viability, T/C [26]: 1.4%; viability, T/C [27]: 1.52%; viability, T/C [28]: 1.45%; viability, T/C [29]: 0.77%; viability, T/C [30]: 0.65%"
COc1cc(C)[nH]c(=O)c1CN1CCc2c(Cl)cc(C(OC)C3COC3)c(Cl)c2C1=O (stereo not given) + CC[C@@]1(O)C(=O)OCc2c1cc1n(c2=O)Cc2cc3c(CN(C)C)c(O)ccc3nc2-1,> 10000 nM,< 31.6 nM,< 31.6 nM,< 31.6 nM,< 31.6 nM,54.1%,52.3%,78.8%,63.3%,83.5%,53.2%,39.5%,10.9%,17.2%,40.1%,38.8%,29.1%,6.67%,5.82%,8.79%,"viability, T/C [16]: 4.86%; viability, T/C [17]: 5.97%; viability, T/C [18]: 7.23%; viability, T/C [19]: 6.1%; viability, T/C [20]: 2.42%; viability, T/C [21]: 2.48%; viability, T/C [22]: 6.01%; viability, T/C [23]: 4.18%; viability, T/C [24]: 6.78%; viability, T/C [25]: 2.05%; viability, T/C [26]: 2.31%; viability, T/C [27]: 2%; viability, T/C [28]: 1.4%; viability, T/C [29]: 3.18%; viability, T/C [30]: 2.92%"
COc1ccc([C@@H](O)c2cc(-c3ncnc4cc(N5CCOCC5)ccc34)c(F)cc2Cl)nn1 + CC[C@@]1(O)C(=O)OCc2c1cc1n(c2=O)Cc2cc3c(CN(C)C)c(O)ccc3nc2-1,2580 nM,< 31.6 nM,< 31.6 nM,< 31.6 nM,< 31.6 nM,98.9%,71.7%,95.3%,77%,44.2%,14.9%,42.3%,27.2%,54%,48.5%,36%,11.8%,2.44%,3.37%,3.22%,"viability, T/C [16]: 2.13%; viability, T/C [17]: 2.99%; viability, T/C [18]: 0.99%; viability, T/C [19]: 4.05%; viability, T/C [20]: 2.6%; viability, T/C [21]: 6.24%; viability, T/C [22]: 2.56%; viability, T/C [23]: 1.11%; viability, T/C [24]: 1.58%; viability, T/C [25]: 2.38%; viability, T/C [26]: 2.02%; viability, T/C [27]: 2.24%; viability, T/C [28]: 2.64%; viability, T/C [29]: 1.97%; viability, T/C [30]: 0.5%"
[2H]c1nc(C)nc([2H])c1-c1cc(NC[C@@H](C)c2cccc3c(C(=O)NC)ccnc23)ncn1 + CC[C@@]1(O)C(=O)OCc2c1cc1n(c2=O)Cc2cc3c(CN(C)C)c(O)ccc3nc2-1,< 31.6 nM,< 31.6 nM,< 31.6 nM,< 31.6 nM,< 31.6 nM,43.8%,7.02%,138%,158%,108%,57.3%,23%,4.37%,42.7%,109%,70.8%,29.9%,12%,7.3%,15.2%,"viability, T/C [16]: 21.4%; viability, T/C [17]: 22%; viability, T/C [18]: 26.6%; viability, T/C [19]: 11.4%; viability, T/C [20]: 10.8%; viability, T/C [21]: 3.24%; viability, T/C [22]: 24.5%; viability, T/C [23]: 22.6%; viability, T/C [24]: 21.6%; viability, T/C [25]: 9.96%; viability, T/C [26]: 5.33%; viability, T/C [27]: 2.69%; viability, T/C [28]: 14.1%; viability, T/C [29]: 16.1%; viability, T/C [30]: 4.13%"
